According to patent US7625948B2, “Ester compound and medicinal use thereof” (Japan Tobacco Inc., priority 2002, dated 2009):
Like-named read-outs stand apart in the source and are kept apart here.

Tests used:
Syrian hamsters [1] = assay: Test Example 4: liver TG release inhibition test (Triton WR 1339); format: in vivo; conditions: Triton WR 1339, plasma TG release velocity over 2 h, fasted Syrian hamsters
Description: Liver TG Release Inhibition Test
Syrian hamsters (9 to 11 weeks of age) which were fasted for one day were used in the test. Blood was collected previously from orbital venous plexus, and a sample was forced to be administered orally to the hamsters at a dose of 30, 100 or 300 mg/2 mL/kg, and the same amount of vehicle was administered to the control group. Triton WR 1339 (2 mL/kg) was intravenously administered to the hamsters 30 minutes after the above administration. Two hours later, blood was collected from orbital venous plexus, and plasma was separated from the blood. The amount of TG in the plasma was determined by automatic analyzer (Hitachi Co.). The data was expressed in terms of TG release velocity (mg/dL/min)=(value at 2nd hour minus value before administration)/120. Inhibition rate (%) was calculated from the data obtained on the basis of the following equation.
Inhibition rate (%)=100×(1 minus TG release velocity of sample/TG release velocity of control group).

Syrian hamsters [2] = assay: Test Example 3: olive oil-loading test (inhibition of fat absorption, plasma TG); format: in vivo; conditions: Mesocricetus auratus, po; 100 mg/kg p.o.; plasma TG 4 hours after olive oil; read-out: Test Example 3 Inhibition of fat absorption after olive oil-loading in Hamster Inhibition rate (%)
[3] = Test Example 6: determination of the concentration in plasma (unchanged form and metabolite, orbital venous plexus and portal vein, LC/MS); format: in vivo; conditions: hamster, oral, Syrian hamsters; for concentration at 1 h: 1 h after 30 mg/kg p.o.; for concentration at 2 h: 2 h after 30 mg/kg p.o.; for concentration at 4 h: 4 h after 30 mg/kg p.o.
Description: Determination of the Concentration in Plasma Syrian hamsters (9-15 weeks of age) under non-fasted conditions were used in the test. A sample was suspended in 0.5% methyl cellulose (vehicle), and the suspension was forced to be administered orally to the hamsters at a dose of 30 or 100 mg/2 mL/kg. After a fixed period of time, blood was partly collected from orbital venous plexus, and the hamsters were subjected to laparotomy under ether anesthesia, and then blood was collected from portal vein. The blood was immediately cooled with ice to separate plasma. A portion of the plasma was extracted with an organic solvent and the supernatant was recovered. Concentration of the sample (unchanged form) and that of the metabolite in the supernatant were determined quantitatively by high performance liquid chromatography/mass spectrometry (LC/MS) comparing with chromatogram of synthetic standard.

[4] = Test Example 7: metabolic stability test in human liver S9; format: in vitro ADME; conditions: human liver S9, 2 mg protein/mL, 37° C.
Description: (§1) Metabolic Stability Test in Liver S9 and Small Intestine S9
(§2) Human and hamster liver S9 (final concentration: 2 mg protein/mL), and human and hamster small intestine S9 (final concentration: 2 mg protein/mL) were each suspended in 100 mM potassium phosphate buffer (pH 7.4, containing β-nicotinamide adenine dinucleotide phosphate: 1.3 mM, D-glucose-6-phosphate: 3.3 mM, magnesium chloride: 3.3 mM, glucose-6-phosphate dehydrogenase: 0.4 U/mL). The suspensions were mixed with a solution of a sample (Example 2-5) in DMSO. The solutions were incubated at 37° C. for 0, 10 and 60 minutes, and an organic solvent was added thereto. The solutions were centrifuged, and the concentration of the sample (unchanged form) in the supernatant was determined by high performance liquid chromatography/mass spectrometry (LC/MS). Based on the data obtained, remaining rate (%) was calculated according to the following equation.
(§3) Remaining rate(%)=amount of sample 10 or 60 minutes after incubation/amount of sample at zero time after incubation×100

Japanese white rabbits = assay: Test Example 5: combination use test in cholesterol-loaded rabbit model (plasma cholesterol); format: in vivo; conditions: 10 mg/kg in high cholesterol diet, from grouping to the 4th day
Description: Japanese white rabbits (male, 19 weeks of age, JW, purchased from Kitayama Labes Co., Ltd.) were fed previously in such a way that they were fed a high cholesterol diet (0.3% cholesterol+3% peanut oil-added RC-4, Product of Oriental Yeast Co., Ltd.) of 70 g/day under limited feeding for one day. The rabbits thus fed were used as a cholesterol-loaded rabbit model, and the grouping of such model was carried out in such a way that there might be no variation in the amount of plasma cholesterol among each group (five rabbits/group). […] The rabbits were fed 70 g of each diet every morning. Blood was collected from auricular artery 6 hours after the feeding on the 4th day of the administration, and cholesterol level in plasma was assayed. In the table, increased amount of plasma cholesterol during from the time of grouping to the 4th day was shown.

[5] = Test Example 7: metabolic stability test in human small intestine S9; format: in vitro ADME; conditions: human small intestine S9, 2 mg protein/mL, 37° C.
Description: as §1, §2, §3

[6] = Test Example 7: metabolic stability test in hamster small intestine S9; format: in vitro ADME; conditions: hamster small intestine S9, 2 mg protein/mL, 37° C.
Description: as §1, §2, §3

[7] = Test Example 7: metabolic stability test in hamster liver S9; format: in vitro ADME; conditions: hamster liver S9, 2 mg protein/mL, 37° C.
Description: as §1, §2, §3

[8] = plasma from peripheral blood (orbital venous plexus), read-out: Concentration in plasma, unaltered form, peripheral blood
[9] = plasma from portal vein blood, read-out: Concentration in plasma, unaltered form, blood of portal vein

Row | SMILES | Inhibition of liver TG release in Hamster, Inhibition rate(%) (Syrian hamsters [1]; 100 mg/kg p.o.) | concentration at 1 h [3, 8] [nM] | concentration at 2 h [3, 8] [nM] | concentration at 4 h [3, 8] [nM] | concentration at 1 h [3, 9] [nM] | concentration at 2 h [3, 9] [nM] | concentration at 4 h [3, 9] [nM] | also measured
1 | CCOC(=O)C(COC(=O)Cc1ccc(NC(=O)c2ccccc2-c2ccc(C(F)(F)F)cc2)c(C(=O)N2CCCC2)c1)(C(=O)OCC)c1ccccc1 [Example 2-22] | – | – | – | – | – | – | – | Inhibition of liver TG release in Hamster, Inhibition rate(%) (Syrian hamsters [1]; 30 mg/kg p.o.): 0(30) %
2 | COC(=O)C(COC(=O)Cc1ccc(NC(=O)c2ccccc2-c2ccc(C(F)(F)F)cc2)c(C(=O)N(C)C)c1)(C(=O)OC)c1ccccc1 [Example 2-39] | 6(100) % | – | – | – | – | – | – | –
3 | CCNC(=O)C(COC(=O)Cc1ccc(NC(=O)c2ccccc2-c2ccc(C(F)(F)F)cc2)cc1)(C(=O)NCC)c1ccccc1 [Example 1, 4-[(4′-Trifluoromethylbiphenyl-2-carbonyl)amino]phenyl-acetic acid 2,2-bisethylcarbamoyl-2-phenylethyl ester] | – | – | – | – | – | – | – | inhibition in vivo at 100 mg/kg (Syrian hamsters [2]): 57%; Inhibition of liver TG release in Hamster, Inhibition rate(%) (Syrian hamsters [1]; 300 mg/kg p.o.): 19(300) %
4 | CCNC(=O)C(COC(=O)Cc1ccc(NC(=O)c2ccccc2-c2ccc(C(F)(F)F)cc2)c(OC)c1)(C(=O)NCC)c1ccccc1 [Example 3-3] | 18(100) % | – | – | – | – | – | – | –
5 | CCCNC(=O)C(COC(=O)Cc1ccc(NC(=O)c2ccccc2-c2ccc(C(F)(F)F)cc2)cc1)(C(=O)NCCC)c1ccccc1 [Example 1-35] | – | – | – | – | – | – | – | inhibition in vivo at 100 mg/kg (Syrian hamsters [2]): 59%; Inhibition of liver TG release in Hamster, Inhibition rate(%) (Syrian hamsters [1]; 300 mg/kg p.o.): 9(300) %
6 | O=C(Cc1ccc(NC(=O)c2ccccc2-c2ccc(C(F)(F)F)cc2)cc1)OCC(C(=O)NCC(F)(F)F)(C(=O)NCC(F)(F)F)c1ccccc1 [Example 1-12] | – | < 200 | < 200 | < 200 | < 200 | < 200 | < 200 | –
7 | CCOC(=O)C(COC(=O)Cc1ccc(OC(=O)c2ccccc2-c2ccc(C(F)(F)F)cc2)cc1)(C(=O)OCC)c1ccccc1 [Example 1-2, 2-Phenyl-2-{2-[4-(4′-trifluoromethylbiphenyl-2-carbonyloxy)phenyl]acetoxymethyl}malonic acid diethyl ester] | – | < 200 | < 200 | < 200 | < 200 | < 200 | < 200 | –
8 | CCOC(=O)C(COC(=O)Cc1ccc(NC(=O)c2ccccc2-c2ccc(C(F)(F)F)cc2)c(C(=O)N(C)C)c1)(C(=O)OCC)c1ccccc1 [Example 2-5] | 0(100) % | < 20 | < 20 | < 20 | 10 | 30 | 10 | Remaining rate (%) after 10 min. ([4]; 10 min): 7.9%; Remaining rate (%) after 60 min. ([4]; 60 min): 4.3%; Increased amount of total cholesterol (Japanese white rabbits): 8.6 mg/dL; Remaining rate (%) after 10 min. ([5]; 10 min): 97.6%; Remaining rate (%) after 60 min. ([5]; 60 min): 91.5%; Remaining rate (%) after 10 min. ([6]; 10 min): 29.0%; Remaining rate (%) after 60 min. ([6]; 60 min): 14.1%; Remaining rate (%) after 10 min. ([7]; 10 min): 2.4%; Remaining rate (%) after 60 min. ([7]; 60 min): 0%
9 | O=C(Cc1ccc(NC(=O)c2ccccc2-c2ccc(C(F)(F)F)cc2)cc1)OCC1(C(=O)NCC(F)(F)F)c2ccccc2-c2ccccc21 [Example 1-6] | 0(100) % | – | – | – | – | – | – | –
10 | COC(=O)C(COC(=O)Cc1ccc(NC(=O)c2ccccc2-c2ccc(C(F)(F)F)cc2)cc1)(C(=O)OC)c1ccccc1 [Example 1-13] | – | < 200 | < 200 | < 200 | < 200 | < 200 | < 200 | –
